Experimental data taken from paper PMC5421785, “Citrullination only infrequently impacts peptide binding to HLA class II MHC” (PLoS ONE, 2017).
Like-named read-outs stand apart in the source and are kept apart here. Square brackets hold non-standard residues; d marks the D form. Peptide text beside a SMILES is read from it. Cit = NC(=O)NCCC[C@H](N)C(=O)O

Experiments:
[1] = molecular target: T1, HLA-DRB1*04:01 (Homo sapiens, UniProt P01903+P01911, A100K/A169T/F76Y/I96L/K127E/L162R/M171V/N62H/P40V/Q125Y/R42H/S133A/S149N/S66Y/V115G/V209L/W38E); assay: HLA class II peptide binding, inhibition of radiolabeled peptide binding to purified MHC; settings: for IC50: read-out: DRB1*04:01 binding capacity, Cit peptide (IC50 nM); for DRB1*04:01 binding capacity, WT/cit ratio: ratio of WT IC50 to Cit IC50
T1 construct: EBV transformed homozygous cell lines were used as sources of MHC molecules; endogenous in cells; host or cells: EBV transformed homozygous cell lines

[2] = molecular target: T2, HLA-DRB1*01:01 (Homo sapiens, UniProt P01903+P01911, A100R/D57E/F55L/F60I/F76Y/I96L/L162R/M171V/P40L/Q125E/R42F/V115G/Y59C); assay: as above; settings: for IC50: read-out: DRB1*01:01 binding capacity, Cit peptide (IC50 nM); for DRB1*01:01 binding capacity, WT/cit ratio: ratio of WT IC50 to Cit IC50
T2 construct: EBV transformed homozygous cell lines were used as sources of MHC molecules; endogenous in cells; host or cells: EBV transformed homozygous cell lines

[3] = citrullinated 15-mer (X), purified MHC, inhibition of radiolabeled peptide binding, dash = IC50 >40,000 nM
[4] = citrullinated 15-mer peptide (X = citrulline), purified HLA-DRB1*04:01
[5] = citrullinated 15-mer peptide (X = citrulline), purified HLA-DRB1*01:01
[6] = >1 = citrullination increases binding

IC50 [1, 3] [nM]	IC50 [2, 3] [nM]	Structure (SMILES)	also measured
> 40000	> 40000	CSCC[C@H](NC(=O)[C@H](CCC(=O)O)NC(=O)[C@H](CCC(=O)O)NC(=O)[C@H](CCC(=O)O)NC(=O)[C@H](Cc1ccc(O)cc1)NC(=O)[C@H](CC(C)C)NC(=O)[C@H](CC(=O)O)NC(=O)CNC(=O)[C@H](CC(C)C)NC(=O)[C@H](CCCNC(=N)N)NC(=O)[C@H](CO)NC(=O)[C@H](CCCCN)NC(=O)CNC(=O)[C@@H](N)CCC(N)=O)C(=O)N[C@@H](CCCNC(N)=O)C(=O)O [QGKSRLGDLYEEEMX] (H-QGKSRLGDLYEEEM[Cit]-OH; N-terminus and C-terminus assumed)	DRB1*04:01 binding capacity, WT/cit ratio [1]: 1.0; DRB1*01:01 binding capacity, WT/cit ratio [2]: 0.7
> 40000	> 40000	CSCC[C@H](NC(=O)[C@H](CCC(=O)O)NC(=O)[C@H](CCC(=O)O)NC(=O)[C@H](CCC(=O)O)NC(=O)[C@H](Cc1ccc(O)cc1)NC(=O)[C@H](CC(C)C)NC(=O)[C@H](CC(=O)O)NC(=O)CNC(=O)[C@H](CC(C)C)NC(=O)[C@H](CCCNC(N)=O)NC(=O)[C@H](CO)NC(=O)[C@H](CCCCN)NC(=O)CNC(=O)[C@@H](N)CCC(N)=O)C(=O)N[C@@H](CCCNC(=N)N)C(=O)O [QGKSXLGDLYEEEMR] (H-QGKS[Cit]LGDLYEEEMR-OH; N-terminus and C-terminus assumed)	DRB1*04:01 binding capacity, WT/cit ratio [1]: 1.0; DRB1*01:01 binding capacity, WT/cit ratio [2]: 0.7
–	–	CC(C)C[C@H](NC(=O)CNC(=O)[C@H](CCCNC(N)=O)NC(=O)[C@@H]1CCCN1C(=O)CNC(=O)[C@@H](N)CCC(N)=O)C(=O)N1CCC[C@H]1C(=O)NCC(=O)N[C@H](C(=O)N1CCC[C@H]1C(=O)NCC(=O)N[C@H](C(=O)N[C@@H](CC(=O)O)C(=O)NCC(=O)N1CCC[C@H]1C(=O)O)[C@@H](C)O)[C@@H](C)O [QGPXGLPGTPGTDGP] (H-QGP[Cit]GLPGTPGTDGP-OH)	IC50 [1, 4]: > 40000 nM; IC50 [2, 5]: 21000 nM
11600	33300	CC(C)C[C@H](NC(=O)[C@@H](NC(=O)[C@H](CC(N)=O)NC(=O)[C@H](CCC(=O)O)NC(=O)[C@H](C)NC(=O)[C@H](CCC(=O)O)NC(=O)[C@H](CCC(=O)O)NC(=O)[C@@H](N)CCCNC(=N)N)[C@@H](C)O)C(=O)N[C@@H](CCC(N)=O)C(=O)N[C@@H](CO)C(=O)N[C@@H](Cc1ccccc1)C(=O)N[C@@H](CCCNC(N)=O)C(=O)N[C@@H](CCC(N)=O)C(=O)N[C@@H](CC(=O)O)C(=O)N[C@H](C(=O)O)C(C)C [REEAENTLQSFXQDV] (H-REEAENTLQSF[Cit]QDV-OH)	–
–	–	C[C@H](NC(=O)CNC(=O)[C@@H]1CCCN1C(=O)[C@H](CO)NC(=O)CNC(=O)[C@H](CCC(=O)O)NC(=O)[C@@H](N)CCCNC(=N)N)C(=O)N[C@@H](CC(=O)O)C(=O)NCC(=O)N1CCC[C@H]1C(=O)N1CCC[C@H]1C(=O)NCC(=O)N[C@@H](CCCNC(N)=O)C(=O)N[C@@H](CC(=O)O)C(=O)NCC(=O)O [REGSPGADGPPGXDG] (H-REGSPGADGPPG[Cit]DG-OH; N-terminus and C-terminus assumed)	IC50 [1, 4]: > 40000 nM; DRB1*04:01 binding capacity, WT/cit ratio [1, 6]: 1.0; IC50 [2, 5]: > 40000 nM; DRB1*01:01 binding capacity, WT/cit ratio [2, 6]: 1.0
> 40000	13200	CSCC[C@H](NC(=O)[C@H](CCC(=O)O)NC(=O)[C@H](CCC(=O)O)NC(=O)[C@H](CCC(N)=O)NC(=O)[C@H](CC(C)C)NC(=O)[C@H](CCCCN)NC(=O)[C@H](CCC(=O)O)NC(=O)[C@@H](N)CCCNC(=N)N)C(=O)N[C@@H](CC(C)C)C(=O)N[C@@H](CCC(N)=O)C(=O)N[C@@H](CCCNC(N)=O)C(=O)N[C@@H](CCC(=O)O)C(=O)N[C@@H](CCC(=O)O)C(=O)N[C@@H](C)C(=O)N[C@@H](CCC(=O)O)C(=O)O [REKLQEEMLQXEEAE] (H-REKLQEEMLQ[Cit]EEAE-OH)	–
–	–	CC[C@H](C)[C@H](NC(=O)[C@H](CCCNC(N)=O)NC(=O)[C@H](CO)NC(=O)[C@H](CCC(=O)O)NC(=O)[C@H](CCC(=O)O)NC(=O)CNC(=O)[C@H](CCC(=O)O)NC(=O)[C@H](CC(C)C)NC(=O)[C@H](CC(C)C)NC(=O)[C@H](CCCCN)NC(=O)[C@@H](N)CCCNC(=N)N)C(=O)N[C@@H](CO)C(=O)N[C@@H](CC(C)C)C(=O)N1CCC[C@H]1C(=O)N[C@@H](CC(C)C)C(=O)O [RKLLEGEESXISLPL]	IC50 [1, 4]: 1200 nM; IC50 [2, 5]: 1320 nM
8950	1310	CC(C)C[C@H](NC(=O)[C@H](CC(C)C)NC(=O)[C@H](CCCNC(N)=O)NC(=O)[C@@H](NC(=O)CNC(=O)[C@@H]1CCCN1C(=O)[C@@H](NC(=O)[C@H](CO)NC(=O)[C@H](CO)NC(=O)[C@@H](N)CCCNC(=N)N)C(C)C)C(C)C)C(=O)N[C@@H](CCC(N)=O)C(=O)N[C@@H](CC(=O)O)C(=O)N[C@@H](CO)C(=O)N[C@H](C(=O)N[C@@H](CC(=O)O)C(=O)O)C(C)C [RSSVPGVXLLQDSVD] (H-RSSVPGV[Cit]LLQDSVD-OH)	–
1090	21	CC(C)C[C@H](NC(=O)[C@H](C)NC(=O)[C@H](CO)NC(=O)CNC(=O)[C@H](CC(C)C)NC(=O)[C@H](CO)NC(=O)[C@H](Cc1ccc(O)cc1)NC(=O)[C@@H](NC(=O)[C@@H](N)CCCNC(=N)N)[C@@H](C)O)C(=O)N[C@@H](CCCNC(=N)N)C(=O)N1CCC[C@H]1C(=O)N[C@@H](CO)C(=O)N[C@H](C(=O)N[C@@H](CO)C(=O)N[C@@H](CCCNC(N)=O)C(=O)O)[C@@H](C)O [RTYSLGSALRPSTSX] (H-RTYSLGSALRPSTS[Cit]-OH)	–
1100	14	CC(C)C[C@H](NC(=O)[C@H](C)NC(=O)[C@H](CO)NC(=O)CNC(=O)[C@H](CC(C)C)NC(=O)[C@H](CO)NC(=O)[C@H](Cc1ccc(O)cc1)NC(=O)[C@@H](NC(=O)[C@@H](N)CCCNC(=N)N)[C@@H](C)O)C(=O)N[C@@H](CCCNC(N)=O)C(=O)N1CCC[C@H]1C(=O)N[C@@H](CO)C(=O)N[C@H](C(=O)N[C@@H](CO)C(=O)N[C@@H](CCCNC(=N)N)C(=O)O)[C@@H](C)O [RTYSLGSALXPSTSR] (H-RTYSLGSAL[Cit]PSTSR-OH)	–
–	–	CC(C)C[C@H](NC(=O)CNC(=O)[C@H](C)NC(=O)[C@H](Cc1ccccc1)NC(=O)[C@H](C)NC(=O)[C@@H](N)CO)C(=O)NCC(=O)N1CCC[C@H]1C(=O)N[C@@H](CCCNC(N)=O)C(=O)N[C@@H](CCC(=O)O)C(=O)N[C@@H](CCCCN)C(=O)NCC(=O)N1CCC[C@H]1C(=O)N[C@@H](CC(=O)O)C(=O)N1CCC[C@H]1C(=O)O [SAFAGLGPXEKGPDP] (H-SAFAGLGP[Cit]EKGPDP-OH)	IC50 [1, 4]: 6400 nM; IC50 [2, 5]: 35 nM
641	9.7	CC(C)C[C@H](NC(=O)[C@H](CC(C)C)NC(=O)[C@H](CCCNC(N)=O)NC(=O)[C@@H](NC(=O)CNC(=O)[C@@H]1CCCN1C(=O)[C@@H](NC(=O)[C@H](CO)NC(=O)[C@H](CO)NC(=O)[C@H](CCCNC(=N)N)NC(=O)[C@H](CC(C)C)NC(=O)[C@H](CCCNC(=N)N)NC(=O)[C@@H](NC(=O)[C@H](C)NC(=O)[C@@H](N)CO)C(C)C)C(C)C)C(C)C)C(=O)O [SAVRLRSSVPGVXLL] (H-SAVRLRSSVPGV[Cit]LL-OH)	–
11	0.7	CC(C)C[C@H](NC(=O)[C@H](CC(C)C)NC(=O)[C@H](CCCNC(=N)N)NC(=O)[C@@H](NC(=O)CNC(=O)[C@@H]1CCCN1C(=O)[C@@H](NC(=O)[C@H](CO)NC(=O)[C@H](CO)NC(=O)[C@H](CCCNC(N)=O)NC(=O)[C@H](CC(C)C)NC(=O)[C@H](CCCNC(=N)N)NC(=O)[C@@H](NC(=O)[C@H](C)NC(=O)[C@@H](N)CO)C(C)C)C(C)C)C(C)C)C(=O)O [SAVRLXSSVPGVRLL] (H-SAVRL[Cit]SSVPGVRLL-OH)	–
1050	19	CC(C)C[C@H](NC(=O)[C@H](CC(C)C)NC(=O)[C@H](CCCNC(=N)N)NC(=O)[C@@H](NC(=O)CNC(=O)[C@@H]1CCCN1C(=O)[C@@H](NC(=O)[C@H](CO)NC(=O)[C@H](CO)NC(=O)[C@H](CCCNC(=N)N)NC(=O)[C@H](CC(C)C)NC(=O)[C@H](CCCNC(N)=O)NC(=O)[C@@H](NC(=O)[C@H](C)NC(=O)[C@@H](N)CO)C(C)C)C(C)C)C(C)C)C(=O)O [SAVXLRSSVPGVRLL] (H-SAV[Cit]LRSSVPGVRLL-OH)	–
29700	5590	CC(C)C[C@H](NC(=O)[C@H](C)NC(=O)[C@H](C)NC(=O)[C@@H](NC(=O)[C@H](CC(C)C)NC(=O)[C@H](CC(=O)O)NC(=O)[C@@H]1CCCN1C(=O)[C@H](CCCCN)NC(=O)[C@@H](N)CO)[C@@H](C)O)C(=O)N[C@@H](CCCNC(=N)N)C(=O)N[C@@H](CC(=O)O)C(=O)N[C@H](C(=O)N[C@@H](CCCNC(N)=O)C(=O)N[C@@H](CCC(N)=O)C(=O)N[C@@H](CCC(N)=O)C(=O)O)C(C)C [SKPDLTAALRDVXQQ] (H-SKPDLTAALRDV[Cit]QQ-OH)	–
30300	1370	CC(C)C[C@H](NC(=O)[C@H](C)NC(=O)[C@H](C)NC(=O)[C@@H](NC(=O)[C@H](CC(C)C)NC(=O)[C@H](CC(=O)O)NC(=O)[C@@H]1CCCN1C(=O)[C@H](CCCCN)NC(=O)[C@@H](N)CO)[C@@H](C)O)C(=O)N[C@@H](CCCNC(N)=O)C(=O)N[C@@H](CC(=O)O)C(=O)N[C@H](C(=O)N[C@@H](CCCNC(=N)N)C(=O)N[C@@H](CCC(N)=O)C(=O)N[C@@H](CCC(N)=O)C(=O)O)C(C)C [SKPDLTAALXDVRQQ] (H-SKPDLTAAL[Cit]DVRQQ-OH)	–
